Test results from patent US20190185461A1, “B[…] B2-RECEPTOR AGONIST ACTIVITY AND M3-RECEPTOR ANTAGONIST ACTIVITY AND MEDICAL USE THEREOF” (Sichuan Haisco Pharmaceutical Co., Ltd., priority 2015, published 2019).

Columns and labels:
[1] = biological target: T1, human muscarine receptor M3 (hM3) (Homo sapiens, UniProt P20309); experiment: Inhibitory activity against human muscarine receptor M3 (aequorin luminescence, CHO cells, acetylcholine challenge); type: cell-based; details: IC50 for hM3 receptor, CHO cells stably expressing hM3 and apo-Aequorin; acetylcholine chloride 112.92 nM; luminescence over 20 seconds
T1 construct: host or cells: CHO cells
T1 sequence (P20309 whole entry): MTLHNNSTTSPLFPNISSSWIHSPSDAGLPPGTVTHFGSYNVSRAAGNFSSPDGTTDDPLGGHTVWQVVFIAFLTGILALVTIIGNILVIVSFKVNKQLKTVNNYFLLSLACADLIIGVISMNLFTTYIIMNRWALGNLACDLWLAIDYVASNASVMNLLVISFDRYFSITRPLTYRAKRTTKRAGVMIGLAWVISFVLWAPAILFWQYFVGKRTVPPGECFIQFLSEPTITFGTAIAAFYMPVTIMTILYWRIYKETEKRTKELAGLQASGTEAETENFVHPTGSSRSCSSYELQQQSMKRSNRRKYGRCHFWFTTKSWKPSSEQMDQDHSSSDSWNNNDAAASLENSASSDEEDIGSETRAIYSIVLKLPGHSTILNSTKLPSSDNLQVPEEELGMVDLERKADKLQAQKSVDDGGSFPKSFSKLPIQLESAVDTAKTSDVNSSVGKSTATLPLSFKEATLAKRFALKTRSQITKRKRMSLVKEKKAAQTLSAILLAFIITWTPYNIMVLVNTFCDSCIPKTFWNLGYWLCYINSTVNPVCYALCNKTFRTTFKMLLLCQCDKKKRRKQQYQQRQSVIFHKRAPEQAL
Method: CHO cells (PerkinElmer, ES-212-AF) that stably express human muscarine receptor M3 (hM3) and apo-Aequorin were cultured at 37° C., 5% CO2 in Ham's F12 media (Invitrogen 12500-062) containing 10% fetal bovine serum (FBS) (Gibico 10099-141), 400 μg/mL G418 (sigma G5013) and 250 μg/mL Zeocin (Invivogen ant-zn-5p), until a confluency of 90% to 100% was reached. Cells were separated by rinsing with PBS/5 mM EDTA, collected by centrifugation, re-suspended in phenol red-free Ham's F12 media (Invitrogen 12500-062) containing 0.1 BSA (BOVOGEN BSAS 100), and counted. The cell concentration was adjusted to 1×10^6 cells/ml. 15 ml of the cell suspension was added to a 50-ml centrifuge tube, to which Coelenterazine-h (Promega 52011) was added to a final concentration of 5 μM. The tube was wrapped with a tin foil to shade light, and incubated on a rotary shaker at 20° C. for 4 hours. The cells were diluted with a phenol red-free/0.1% BSA Ham's F12 medium to a final concentration of 5.0×10^5 cells/ml, placed on a rotary shaker in low speed rotation, and incubated at room temperature for at least 1 hour. The compounds of the Examples were formulated with DMSO into 10 mM stock solutions, diluted in series with a phenol red-free/0.1% BSA Ham's F12 media (log(M): −7, −8, −9, −10, −11), and added to a 96-well plate at 50 μl/well. 50 μl cell suspension was further added to each well (25,000 cells/well) and incubated for 15 min at room temperature. The 96-well plate was placed in a microplate reader (Perkin Elmer, Envision), and a 50 μl solution of acetylcholine chloride (Sigma A6625) was added to each well at a concentration of 112.92 nM (hM3) with a microplate reader sample injector. The luminescence was recorded over 20 seconds, and IC50 values were calculated and analyzed by Origin 7.5.

[2] = biological target: T2, human β2-adrenergic receptor (hβ2) (Homo sapiens, UniProt P07550); experiment: Agonist activity on human β2-adrenergic receptor (LANCE Ultra cAMP Assay, CHO cells); type: cell-based
T2 construct: host or cells: CHO cells
T2 sequence (P07550 whole entry): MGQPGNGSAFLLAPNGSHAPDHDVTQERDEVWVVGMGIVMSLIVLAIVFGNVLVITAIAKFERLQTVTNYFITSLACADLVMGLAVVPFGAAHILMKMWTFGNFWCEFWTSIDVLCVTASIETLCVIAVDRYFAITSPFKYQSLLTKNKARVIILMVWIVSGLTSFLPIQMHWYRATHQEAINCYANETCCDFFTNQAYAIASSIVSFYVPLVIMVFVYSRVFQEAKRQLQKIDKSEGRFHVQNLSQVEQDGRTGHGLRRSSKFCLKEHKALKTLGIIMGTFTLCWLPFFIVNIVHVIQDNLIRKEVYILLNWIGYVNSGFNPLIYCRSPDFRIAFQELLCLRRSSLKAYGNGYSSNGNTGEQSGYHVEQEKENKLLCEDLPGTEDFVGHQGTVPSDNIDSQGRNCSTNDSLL
Method: The agonist activity of the compounds of the Examples on the human adrenergic receptor was measured by the LANCE Ultra cAMP Assay.
CHO cells (PerkinElmer, ES-034-AF) that stably express human adrenergic receptor (hβ2) were cultured at 37° C., 5% CO2 in MEM-alpha media (Invitrogen 12561-056) containing 10% fetal bovine serum (FBS) (Gibico 10099-141) and 250 μg/ml Zeocin (InvivoGen ant-zn-5p), until a confluency of 90% to 100% was reached. Then the agonism on cAMP was tested by using a LANCE Ultra cAMP Assay kit (PerkinElmer TRF0263). Cells were separated with PBS/5 mM EDTA, collected by centrifugation, re-suspended in Stimulation Buffer (1×HBSS, 5 mM HEPES, 0.5 mM IBMX, 0.1% BSA, pH7.4), and adjusted to a cell concentration of 6×10^5 cells/ml. The compounds of the Examples were formulated with DMSO into 10 mM stock solutions, diluted in series with Stimulation Buffer, and added to a 384-well plate at 5 μl/well. 5 μl cell suspension was further added to each well (3,000 cells/well), incubated for 30 min at room temperature, then 5 μl of a 4×Eu-cAMP trace working solution was added to each well, and then 5 μl of a 4× Ulight-anti-cAMP working solution was added to each well, followed by incubation at room temperature for 1 hour. The 384-well plate was detected for TR-FRET with a microplate reader (Perkin Elmer, Envision), and EC50 values were calculated and analyzed by Origin 7.5.

| Structure (SMILES) | IC50 [1] [nM] | EC50 [2] [nM] |
| --- | --- | --- |
| O=C(OC1CC2(CCN(CCCn3nnc4cc(CNC[C@H](O)c5ccc(O)c6[nH]c(=O)sc56)ccc43)CC2)C1)C(O)(c1cccs1)c1cccs1 [Compound 12, [7-[3-[5-[[[(2R)-2-hydroxy-2-(4-hydroxy-2-oxo-3H-1,3-benzothiazol-7-yl)ethyl]amino]methyl]benzotriazol-1-yl]propyl]-7-azaspiro[3.5]nonan-2-yl] 2-hydroxy-2,2-bis(2-thienyl)acetate; ditrifluoroacetic acid] | 0.52 | 0.47 |
| O=C(OC1CC2(CCN(CCCn3nnc4cc(CNC[C@H](O)c5ccc(O)c(CO)c5)ccc43)CC2)C1)C(O)(c1cccs1)c1cccs1 [Compound 13, [7-[3-[5-[[[(2R)-2-hydroxy-2-[4-hydroxy-3-(hydroxymethyl)phenyl]ethyl]amino]methyl]benzotriazol-1-yl]propyl]-7-azaspiro[3.5]nonan-2-yl] 2-hydroxy-2,2-bis(2-thienyl)acetate; ditrifluoroacetic acid] | 0.31 |  |
| O=C(OC1CC2(CCN(CCCn3c(=O)sc4cc(CNC[C@H](O)c5ccc(O)c6[nH]c(=O)ccc56)ccc43)CC2)C1)C(O)(c1cccs1)c1cccs1 [Compound 7, [7-[3-[6-[[[(2R)-2-hydroxy-2-(8-hydroxy-2-oxo-1H-quinolin-5-yl)ethyl]amino]methyl]-2-oxo-1,3-benzothiazol-3-yl]propyl]-7-azaspiro[3.5]nonan-2-yl] 2-hydroxy-2,2-bis(2-thienyl)acetate; ditrifluoroacetic acid] | 1.29 | 4 |
| O=C(OC1CC2(CCN(CCCn3nnc4cc(CNC[C@H](O)c5ccc(O)c6[nH]c(=O)ccc56)ccc43)CC2)C1)C(O)(c1cccs1)C1CCCC1 (single isomer, unassigned) [Isomer 1 of Compound 9, ditrifluoroacetic acid] | 2.47 |  |
| O=C(OC1CC2(CCN(CCCn3nnc4cc(CNC[C@H](O)c5ccc(O)c6[nH]c(=O)ccc56)ccc43)CC2)C1)C(O)(c1ccccc1)C1CCCC1 (stereo partly drawn) [Compound 4, [7-[3-[5-[[[(2R)-2-hydroxy-2-(8-hydroxy-2-oxo-1H-quinolin-5-yl)ethyl]amino]methyl]benzotriazol-1-yl]propyl]-7-azaspiro[3.5]nonan-2-yl] 2-cyclopentyl-2-hydroxy-2-phenyl-acetate; ditrifluoroacetic acid] | 2.46 |  |
| CN(CCCn1nnc2cc(CNC[C@H](O)c3ccc(O)c4[nH]c(=O)ccc34)ccc21)C(=O)CCN1CCC2(CC1)CC(OC(=O)C(O)(c1cccs1)c1cccs1)C2 [Compound 11, [7-[3-[3-[5-[[[(2R)-2-hydroxy-2-(8-hydroxy-2-oxo-1H-quinolin-5-yl)ethyl]amino]methyl]benzotriazol-1-yl]propyl-methyl-amino]-3-oxo-propyl]-7-azaspiro[3.5]nonan-2-yl] 2-hydroxy-2,2-bis(2-thienyl)acetate; ditrifluoroacetic acid] | 0.46 |  |
| O=CNc1cc([C@@H](O)CNCc2ccc3c(c2)nnn3CCCN2CCC3(CC2)CC(OC(=O)C(O)(c2cccs2)c2cccs2)C3)ccc1O [Compound 3, [7-[3-[5-[[[(2R)-2-(3-formamido-4-hydroxy-phenyl)-2-hydroxy-ethyl]amino]methyl]benzotriazol-1-yl]propyl]-7-azaspiro[3.5]nonan-2-yl] 2-hydroxy-2,2-bis(2-thienyl)acetate; ditrifluoroacetic acid] | 0.22 |  |
| O=C(OC1CC2(CCN(CCCn3nnc4cc(CNC[C@H](O)c5ccc(O)c6[nH]c(=O)ccc56)ccc43)CC2)C1)C(O)(c1cccs1)C1CCCC1 (single isomer, unassigned) [Isomer 2 of Compound 9, ditrifluoroacetic acid] | 2.76 |  |
| O=C1COc2c([C@@H](O)CNCc3ccc4c(c3)nnn4CCCN3CCC4(CC3)CC(OC(=O)C(O)(c3cccs3)c3cccs3)C4)ccc(O)c2N1 [Compound 2, [7-[3-[5-[[[(2R)-2-hydroxy-2-(5-hydroxy-3-oxo-4H-1,4-benzoxazin-8-yl)ethyl]amino]methyl]benzotriazol-1-yl]propyl]-7-azaspiro[3.5]nonan-2-yl] 2-hydroxy-2,2-bis(2-thienyl)acetate; ditrifluoroacetic acid] | 0.59 | 1.3 |
| O=C(OC1CC2(CCN(CCCn3nnc4cc(CNC[C@H](O)c5ccc(O)c6[nH]c(=O)ccc56)ccc43)CC2)C1)C(O)(c1ccccc1)C1CCCC1 (single isomer, unassigned) [Isomer 1 of Compound 4] | 2.36 |  |
| O=C(OC1CC2(CCN(CCCn3c(=O)oc4cc(CNC[C@H](O)c5ccc(O)c6[nH]c(=O)ccc56)ccc43)CC2)C1)C(O)(c1cccs1)c1cccs1 [Compound 8, [7-[3-[6-[[[(2R)-2-hydroxy-2-(8-hydroxy-2-oxo-1H-quinolin-5-yl)ethyl]amino]methyl]-2-oxo-1,3-benzoxazol-3-yl]propyl]-7-azaspiro[3.5]nonan-2-yl] 2-hydroxy-2,2-bis(2-thienyl)acetate; ditrifluoroacetic acid] | 0.65 | 6.13 |
| O=C(OC1CC2(CCN(CCCn3nnc4cc(CNC[C@H](O)c5ccc(O)c6[nH]c(=O)ccc56)ccc43)CC2)C1)C(O)(c1cccs1)c1cccs1 [Compound 1, [7-[3-[5-[[[(2R)-2-hydroxy-2-(8-hydroxy-2-oxo-1H-quinolin-5-yl)ethyl]amino]methyl]benzotriazol-1-yl]propyl]-7-azaspiro[3.5]nonan-2-yl] 2-hydroxy-2,2-bis(2-thienyl)acetate] | 0.43 | 4.45 |
| O=C(OC1CC2(CCN(CCCn3nnc4cc(CNC[C@H](O)c5ccc(O)c6[nH]c(=O)ccc56)ccc43)CC2)C1)C(O)(c1ccccc1)C1CCCC1 (single isomer, unassigned) [Isomer 2 of Compound 4] | 1.77 |  |
